Drawing on US8436015B2, “Glucagon receptor antagonist compounds, compositions containing such compounds and methods of use” (Merck Sharp & Dohme Corp., priority 2008, dated 2013), this text covers IC50 for 30 compounds.

T1 sequence (P47871 26-477): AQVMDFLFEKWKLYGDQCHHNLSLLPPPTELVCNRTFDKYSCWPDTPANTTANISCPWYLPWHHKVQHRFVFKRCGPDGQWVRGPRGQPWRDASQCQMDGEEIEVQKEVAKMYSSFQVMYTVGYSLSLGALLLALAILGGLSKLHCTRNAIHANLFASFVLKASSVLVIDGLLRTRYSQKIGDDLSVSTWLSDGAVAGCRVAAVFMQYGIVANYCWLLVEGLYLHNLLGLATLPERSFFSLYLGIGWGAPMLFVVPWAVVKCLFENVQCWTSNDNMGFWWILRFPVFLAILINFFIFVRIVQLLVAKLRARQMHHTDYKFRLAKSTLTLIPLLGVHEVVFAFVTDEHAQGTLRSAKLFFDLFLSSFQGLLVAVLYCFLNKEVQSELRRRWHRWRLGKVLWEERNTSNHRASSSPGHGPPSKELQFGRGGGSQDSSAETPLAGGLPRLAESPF

This assay addresses T1, human glucagon receptor (Homo sapiens, UniProt P47871).
T1 construct: expressed in transfected cells; cell membranes used
As to the kind of experiment: Glucagon Receptor Binding Assay. The conditions noted are these: more active isomer of indicated compounds; 125I-glucagon displacement, membranes of CHO cells expressing cloned human glucagon receptor. As for the experimental part:
A stable CHO (Chinese hamster ovary) cell line expressing cloned human glucagon receptor was maintained as described (Chicchi et al. J Biol Chem 272, 7765-9 (1997); Cascieri et al. J Biol Chem 274, 8694-7 (1999)). […] After 4-12 hours incubation at room temperature, the radioactivity bound to the cell membranes was determined in a radioactive emission detection counter (Wallac-Microbeta). Data was analyzed using the software program Prism from GraphPad. The IC50 values were calculated using non-linear regression analysis assuming single site competition.
As for `CCCC(c1ccc(C(=O)NCCC(=O)O)cc1)C(c1ccc(Cl)cc1)c1ccc2nc(OC)ccc2c1` (stereo not drawn) [Example 120], the IC50 (usually the concentration that gives 50% inhibition) was 1.8 nM.
The result for `CCCC(c1ccc(C(=O)NCCC(=O)O)cc1)C(c1ccc(Cl)cc1)c1cc(C)nc2cc(Cl)ccc12` (stereo not drawn) [Example 37] reads 0.4 nM.
The result for `CCC[C@H](c1ccc(C(=O)NCCC(=O)O)cc1)C(c1ccc(Cl)cc1)c1cccc2nc(-c3ccn[nH]3)ccc12` (stereo partly drawn) [Example 171, N-(4-{(1S)-1-[(4-Chlorophenyl)(2-(1H-Pyrazol-5-Yl)Quinolin-5-Yl)Methyl]Butyl}Benzoyl)-β-Alanine] reads 18 nM; that for `O=C(O)CCNC(=O)c1ccc(C(CCC(F)(F)F)C(c2ccc(Cl)cc2)c2ccnc3cc(Cl)ccc23)cc1` (stereo not drawn) [Example 55], 0.2 nM.
Under `CCCC(c1ccc(C(=O)NCCC(=O)O)cc1)C(c1ccc(Cl)cc1)c1cccc2ccc(OC)nc12` (stereo not drawn) [Example 146] stands 12 nM.
`CCCC(c1ccc(C(=O)NCCC(=O)O)cc1)C(c1ccc(Cl)cc1)c1ccnc2cc(C)c(Cl)cc12` (stereo not drawn) [Example 50] registered an IC50 of 0.5 nM.
For `CCCC(c1ccc(C(=O)NCCC(=O)O)cc1)C(c1cccc(Cl)c1)c1ccnc2cc(F)c(F)cc12` (stereo not drawn) [Example 159], the IC50 amounted to 0.6 nM.
With `CCCC(c1ccc(C(=O)NCCC(=O)O)cc1)C(c1ccc(Cl)cc1)c1ccnc2c(C)cc(F)cc12` (stereo not drawn) [Example 35], the half-inhibitory concentration (IC50) was found to be 0.8 nM.
As for `CCCC(c1ccc(C(=O)NCCC(=O)O)cc1)C(c1ccc(Cl)cc1)c1ccnc2c(C)cc(OC(F)(F)F)cc12` (stereo not drawn) [Example 52], the IC50 was determined as 1.1 nM.
The compound `CCCC(c1ccc(C(=O)NCCC(=O)O)cc1)C(c1ccc(Cl)cc1)c1cncc2c(Cl)cccc12` (stereo not drawn) [Example 131] gave a 50% inhibitory concentration (IC50) of 0.5 nM.
The compound `CCCC(c1ccc(C(=O)NCCC(=O)O)cc1)C(c1ccc(OC(F)(F)F)cc1)c1cncc2cc(Cl)ccc12` (stereo not drawn) [Example 139] yielded an IC50 of 0.3 nM.
Take `CCCC(c1ccc(C(=O)NCCC(=O)O)cc1)C(c1ccc(Cl)cc1)c1cccc2nc(OCCOC)ccc12` (stereo not drawn) [Example 112]: the concentration for half-maximal inhibition (IC50) stood at 0.9 nM.
As for `CCCC(c1ccc(C(=O)NCCC(=O)O)cc1)C(c1ccc(Cl)cc1)c1ccnc2cc(Cl)ccc12` (stereo not drawn) [Example 7], the IC50 is 0.5 nM.
The result for `O=C(O)CCNC(=O)c1ccc(C(CCC(F)(F)F)C(c2ccc(Cl)cc2)c2cncc3cc(Cl)ccc23)cc1` (stereo not drawn) [Example 138] reads 0.4 nM; that for `CCCC(c1ccc(C(=O)NCCC(=O)O)cc1)C(c1ccc(Cl)cc1)c1ccnc2c(F)c(C)c(F)cc12` (stereo not drawn) [Example 72], 0.2 nM; that for `CCC[C@H](c1ccc(C(=O)NCCC(=O)O)cc1)C(c1ccc(Cl)cc1)c1cccc2nc(OC)ccc12` (single isomer, unassigned) [Example 2], 0.5 nM.
On to `CCCC(c1ccc(C(=O)NCCC(=O)O)cc1)C(c1ccc(Cl)cc1)c1cc(C)nc2ccc(Cl)cc12` (stereo not drawn) [Example 23], for which the half-maximal inhibitory concentration (IC50) worked out at 1.4 nM.
As for `CCC(c1ccc(C(=O)NCCC(=O)O)cc1)C(c1ccc(OC(F)(F)F)cc1)c1cccc2nc(OC)ccc12` (stereo not drawn) [Example 115], the half-inhibitory concentration (IC50) is 0.3 nM.
Under `CCC[C@H](c1ccc(C(=O)NCCC(=O)O)cc1)C(c1ccc(Cl)cc1)c1ccnc2cc(F)c(F)cc12` (single isomer, unassigned) [Example 157] stands 0.3 nM.
In turn, `CCC[C@H](c1ccc(C(=O)NCCC(=O)O)cc1)C(c1ccc(Cl)cc1)c1ncnc2c(F)cc(C)cc12` (single isomer, unassigned) [Example 173] yielded an IC50 of 1.4 nM.
On to `CCCC(c1ccc(C(=O)NCCC(=O)O)cc1)C(c1ccc(Cl)cc1)c1cccc2nc(OC3CCC3)ccc12` (stereo not drawn) [Example 108], for which the IC50 came to 0.4 nM.
The result for `CCC[C@H](c1ccc(C(=O)NCCC(=O)O)cc1)C(c1ccc(Cl)cc1)c1cnc2cc(C(F)(F)F)ccc2c1` (single isomer, unassigned) [Example 3] reads 5 nM.
`CCCC(c1ccc(C(=O)NCCC(=O)O)cc1)C(c1ccc(Cl)cc1)c1ccnc2cc(OC(F)(F)F)ccc12` (stereo not drawn) [Example 24] had an IC50 of 0.1 nM.
Regarding `CCCC(c1ccc(C(=O)NCCC(=O)O)cc1)C(c1ccc(Cl)cc1)c1ccnc2c(Cl)cc(OC)cc12` (stereo not drawn) [Example 10], the IC50 was determined as 0.6 nM.
Regarding `CCCC(c1ccc(C(=O)NCCC(=O)O)cc1)C(c1ccc(OC(F)(F)F)cc1)c1ccnc2cc(F)ccc12` (stereo not drawn) [Example 62], the IC50 came out at 0.2 nM.
Under `CCCC(c1ccc(C(=O)NCCC(=O)O)cc1)C(c1ccc(Cl)cc1)c1nc(C2CCCCC2)c2ccc(C(F)(F)F)cc2n1` (stereo not drawn) [Example 179] stands 4.5 nM.
The result for `CCC[C@H](c1ccc(C(=O)NCCC(=O)O)cc1)C(c1ccc(Cl)cc1)c1ccnc2c(C)cc(Cl)cc12` (single isomer, unassigned) [Example 1] reads 1 nM.
With `CCCC(c1ccc(C(=O)NCCC(=O)O)cc1)C(c1ccc(Cl)cc1)c1nc(CC)c2cc(OC)ccc2n1` (single isomer, unassigned) [Example 174, N-(4-{1-[(4-Chlorophenyl)(4-Ethyl-6-Methoxyquinazolin-2-Yl)Methyl]Butyl}Benzoyl)-β-Alanine], the IC50 was found to be 1.7 nM.
As to `Cc1cc2nccc(C(c3ccc(Cl)cc3)C(CCC(F)(F)F)c3ccc(C(=O)NCCC(=O)O)cc3)c2cc1F` (stereo not drawn) [Example 77], the IC50 worked out at 0.2 nM.
Under `CCCC(c1ccc(C(=O)NCCC(=O)O)cc1)C(c1ccc(Cl)c(Cl)c1)c1ccnc2c(C)cc(Cl)cc12` (stereo not drawn) [Example 84] stands 0.3 nM.
